According to PubChem BioAssay AID463203 (Broad Institute, 2010):
Active and inactive are the calls of the source.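 How the source made its calls: active means more than half of replicate measurements showing over 20% loss of kinase signal relative to plate controls; inconclusive means some but at most half of replicates over 20% loss; inactive means no replicate over 20% signal loss.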

target: Glycogen synthase kinase-3 alpha (Homo sapiens) (UniProt P49840); assay: concentration-response blocking of human GSK3A – biochemical, luminescence, cell-free homogeneous, retest, dose response (AID 463203); details: GSK-3 alpha enzyme, ADP-Glo luminescence, 60 min
Sequence (P49840 whole entry, looked up): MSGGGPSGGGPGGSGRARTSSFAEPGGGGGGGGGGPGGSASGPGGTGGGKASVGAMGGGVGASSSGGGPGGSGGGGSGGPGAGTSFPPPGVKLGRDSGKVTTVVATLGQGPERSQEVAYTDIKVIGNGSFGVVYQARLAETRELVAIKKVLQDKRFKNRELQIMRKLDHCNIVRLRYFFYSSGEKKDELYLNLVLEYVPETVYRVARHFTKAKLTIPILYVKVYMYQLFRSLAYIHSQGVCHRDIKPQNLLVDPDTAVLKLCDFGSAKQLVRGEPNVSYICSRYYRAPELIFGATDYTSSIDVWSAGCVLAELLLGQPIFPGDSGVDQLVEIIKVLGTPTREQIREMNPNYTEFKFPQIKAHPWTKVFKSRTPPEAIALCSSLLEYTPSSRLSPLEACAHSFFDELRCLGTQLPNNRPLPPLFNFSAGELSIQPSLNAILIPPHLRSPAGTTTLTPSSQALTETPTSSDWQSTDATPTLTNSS

| Structure (SMILES) | AC50 |
| --- | --- |
| O=C(Cn1ncc2c(=O)oc3ccccc3c21)N1CCc2ccccc2C1 | > 30 µM (inactive) |
| Cc1oc2ccc(O)c(CN(C)C)c2c1C(=O)c1ccccc1 | > 30 µM (inactive) |
| Cn1c2ccc(Cl)cc2c2nc3ccccc3nc21 | > 30 µM (inactive) |
| Cc1c(/C=N/Nc2ccc([N+](=O)[O-])cn2)c2ccccc2n1Cc1ccccc1 | > 30 µM (inactive) |
| COc1ccc(NC(=O)CNc2cccc(S(=O)(=O)N3CCCCCC3)c2)c([N+](=O)[O-])c1 | > 30 µM (inactive) |
| COc1cccc(/C=N/NC(=O)COc2cccc3cccnc23)c1O | > 30 µM (inactive) |
| Oc1[nH]c2ccc(Br)cc2c1N=Nc1ccc(F)cc1 | 7.48 µM |
| CNC(=O)c1ccsc1NC(=O)C1CCCN1S(=O)(=O)c1cccs1 (centres undefined) | 17.2 µM |
| CC1(C)CC(=O)C(C(C2=C(O)CC(C)(C)CC2=O)c2ccco2)C(=O)C1 (centres undefined) | > 30 µM (inactive) |
| C[n+]1cccc(/C=N/Nc2nc(Cl)c(C#N)c(Cl)c2Cl)c1 | > 30 µM (inactive) |
| CCOC(=O)c1cnn(C)c1NC(=O)c1ccc(Cl)cc1Cl | > 30 µM (inactive) |
| O=C1c2ccccc2C(=O)c2c(Nc3ccc(CCO)cc3)ccc(O)c21 | > 30 µM (inactive) |
| Nc1cc(C(F)(F)F)ccc1C(=O)O | > 30 µM (inactive) |
| COc1cc2c(ccc3cc(OC)c(OC)c(O)c32)cc1O | 20.8 µM |
| Cc1ccc(Sc2ccc(NC(=O)CCl)cc2)c(C)c1 | > 30 µM (inactive) |
| S=C(Nc1cccnc1)Nc1ccccn1 | > 30 µM (inactive) |
| CN(C)c1ccc(/C=N/NC(=O)c2ccc(Cl)cc2)cc1 | > 30 µM (inactive) |
| O=C(CSc1nc2[nH]ncc2c(=O)n1-c1ccc(Cl)c(Cl)c1)NCc1ccccc1Cl | > 30 µM (inactive) |
| O=C(c1ccc(Cl)cc1)c1cnc(Nc2ccccc2Cl)s1 | > 30 µM (inactive) |
| CCCC1=C(C(=O)OCC)C(c2ccc(N(C)C)cc2)n2ncnc2N1 (centres undefined) | > 30 µM (inactive) |
| CN1/C(=C/C(=O)C2CC2)C(C)(C)c2ccccc21 | > 30 µM (inactive) |
| Cc1nc(S/C(=C/c2ccc(-c3ccc(C(=O)O)cc3)o2)C(=O)O)n[nH]1 | 21.4 µM |
| Cc1ccc(C(=O)c2cc(C)sc2NC(=O)CN2CCN(C(=O)c3ccco3)CC2)cc1 | > 30 µM (inactive) |
| CCN1CCN(c2nc(N)c([N+](=O)[O-])c(Nc3ccc(C)cc3)n2)CC1 | > 30 µM (inactive) |
| CCc1nnc(NC(=O)CCc2nc(C3=CCN(C)CC3)no2)s1 | > 30 µM (inactive) |

| Structure (SMILES) | AC50 |
| --- | --- |
| COc1ccc2nc(SCc3nc(N)nc(Nc4ccccc4)n3)[nH]c2c1 | 12.5 µM |
| O=C1NC(=Nc2ccccc2Cl)S/C1=C\c1cccc([N+](=O)[O-])c1O | 24 µM |
| CCSc1nc(N)c(C#N)c(-c2ccco2)c1C#N | > 30 µM (inactive) |
| CCOC(=O)c1cc(C)sc1NC(=O)C1CCC1 | > 30 µM (inactive) |
| CCOc1ccc(Nc2nc(N(C)c3ccccc3)nc(N)c2[N+](=O)[O-])cc1 | > 30 µM (inactive) |
| CN1/C(=C\C=C2/SC(=S)NC2=O)C(C)(C)c2ccccc21 | 12.7 µM |
| COc1ccc(/C=C(\C#N)C(=O)N=CN(C)C)cc1 | > 30 µM (inactive) |
| Cc1ccc(N=Nc2c(O)ccc3n[nH]nc23)cc1 | 4.23 µM |
| COc1ccc(C2NC(=O)NC(C)=C2C(=O)OCc2ccc3c(c2)OCO3)cc1OC (centres undefined) | 10.2 µM |
| CCOc1ccc2ncc(S(=O)(=O)c3ccccc3)c(N3CCN(c4ccccc4)CC3)c2c1 | > 30 µM (inactive) |
| C=CCn1c(O)c(C(C)=NCCCn2ccnc2)c(=O)[nH]c1=O | 19.4 µM |
| C=CCNc1nc(N)c([N+](=O)[O-])c(N2CCCCCC2)n1 | 29.1 µM |
| COc1ccc(COC(=O)C2=C(C)NC(=O)NC2c2ccc(F)cc2)cc1 (centres undefined) | > 30 µM (inactive) |
| Oc1cc(O)cc(-c2cc3ccc(O)cc3o2)c1 | > 30 µM (inactive) |
| O=C(O)c1ccc(N=Nc2c(O)[nH]c3ccc(Br)cc23)cc1 | 3.54 µM |
| N#CC1=C2SCN(Cc3ccco3)CN2C(=O)CC1c1ccc(Cl)cc1 (centres undefined) | > 30 µM (inactive) |
| O=c1[nH]nc(SCc2ccccc2Cl)n1-c1ccc2c(c1)OCCO2 | 7.11 µM |
| CN1CCC(=NNC(=O)C(=O)NC2CCCC2)CC1 | > 30 µM (inactive) |
| COc1ccc(C(=O)Nc2nc(C)c(C)s2)cc1OC | > 30 µM (inactive) |
| Cc1cccc(C)c1OCC(O)CNC(C)c1ccccc1 (centres undefined) | > 30 µM (inactive) |
| COc1ccc(OC)c(/C=C2\S/C(=N/NC(=O)c3ccc4ccccc4c3)NC2=O)c1 | > 30 µM (inactive) |
| COc1cc(/C=N/NC(=O)c2cccs2)ccc1O | > 30 µM (inactive) |
| COc1ccc(CNc2ccc3cn[nH]c3c2)c(OC)c1OC | 19.8 µM |
| CC(C)(C)NC(=O)/C(=C/c1ccccc1F)NC(=O)c1ccc([N+](=O)[O-])cc1 | > 30 µM (inactive) |
| Cc1nc2sc3c(c2c(=O)o1)CC(C)(C)OC3 | > 30 µM (inactive) |

| Structure (SMILES) | AC50 |
| --- | --- |
| O=C(CSc1nc2[nH]ncc2c(=O)n1-c1ccccc1)NCCc1ccccc1 | 8.62 µM |
| Cc1c(Nc2ncccc2C(=O)O)cccc1C(F)(F)F | > 30 µM (inactive) |
| COC1OC(COC(=O)c2ccccc2)C(OC(=O)c2ccccc2)C1OC(=O)c1ccccc1 (centres undefined) | > 30 µM (inactive) |
| Cc1cc2[nH]c(=S)[nH]c2cc1C | > 30 µM (inactive) |
| Cc1cc(OCc2cc(C(=O)O)oc2C)c2c3c(c(=O)oc2c1)CCCC3 | 21.6 µM |
| CCN1CCN(c2nc(Nc3cccc(OC)c3)nc(N)c2[N+](=O)[O-])CC1 | > 30 µM (inactive) |
| COc1cc(C(=O)NCC(=O)N/N=C(C)\C=C\c2ccccc2)cc(OC)c1OC | > 30 µM (inactive) |
| Cc1nnc(SCC(=O)N2c3ccccc3CC2C)s1 (centres undefined) | > 30 µM (inactive) |
| COc1ccccc1NC(=O)CSc1ccc2nnc(-c3ccc(C)cc3)n2n1 | 19.2 µM |
| Oc1[nH]c2ccccc2c1N=Nc1ccccc1 | 13.9 µM |
| O=C1NC(=O)/C(=C/c2ccc(O)cc2)S1 | 27.2 µM |
| NC(=O)CSc1nc(C2CC2)nc2sc3c(c12)CCCC3 | > 30 µM (inactive) |
| C[C@@H](NC(=O)c1[nH]cnc1C(=O)Nc1ccon1)c1ccccc1 | 11.6 µM |
| CCCCCCCCCCOC(=O)Cn1c(COc2ccc(Cl)cc2)[n+](C)c2ccccc21 | > 30 µM (inactive) |
| O=C(NC(=S)Nc1cccc2c(O)cccc12)c1ccccc1[N+](=O)[O-] | > 30 µM (inactive) |
| CC(=O)Nc1cccc(-c2csc(Nc3ccc(C)cn3)n2)c1 | > 30 µM (inactive) |
| COC(=O)C1CSc2[nH]c(=O)sc2C1c1ccc(O)c(OC)c1 (centres undefined) | > 30 µM (inactive) |
| COc1ccc(/C=C2\Oc3cc(OCC(=O)N4CCC[C@H]4C(=O)O)ccc3C2=O)c(OC)c1OC | > 30 µM (inactive) |
| CC(=O)N(C)c1ccc(N=Cc2cc3c(cc2[N+](=O)[O-])OCO3)cc1 | 21.2 µM |
| O=C(NCCCN1CCOCC1)c1cc(Cl)ccc1[N+](=O)[O-] | > 30 µM (inactive) |
| CCN1C(=O)/C(=C2\SC(=S)N(c3c(C)n(C)n(-c4ccccc4)c3=O)C2=O)c2ccccc21 | > 30 µM (inactive) |
| COc1c(OC)c(O)c2c(=O)c(O)c(-c3ccccc3)oc2c1OC | > 30 µM (inactive) |
| Cc1cc(C)c(/C=N/NC(=O)c2nnn(-c3nonc3N)c2CN2CCC(C)CC2)c(C)c1 | > 30 µM (inactive) |
| Cc1cc(N2CCN(c3ccccc3)CC2)n2ncnc2n1 | > 30 µM (inactive) |
